Reference: the NIST ThermoML archive (doi:10.1016/j.tca.2017.07.015)
± gives the expanded uncertainty stated by the source.

Legend:
[1] = Crystal; DTA
[2] = Molar enthalpy of transition or fusion; settings: Crystal; DSC

With ON=Cc1ccccc1 [benzaldehyde oxime] the Normal melting temperature [1] was 29.70 ± 0.5 °C and the “Molar enthalpy of transition or fusion” value [2] was 3.39 ± 0.335 kcal/mol.
